Several values for one entry are separate records, joined by “and”; a condition that tells them apart may be missing. Equal values may be shown once. Read-outs that look alike come from different tables or passages of the source.
Tests used:
[1] = Dissolving rate (time until solution is clear) of succinic acid and succinic acid-NaHCO3 adduct; type: physicochemical; conditions: for Time until solution is clear: three runs
Method: This solution is stirred and heated briefly until all the solids have dissolved. Then the solution is dried to constant weight (for approximately 48 hours) at approximately 105° C. in a drying oven. The product, which forms amorphous crystals, is homogenized in a mortar.

[2] = for pH of finished solution: 1st-3rd test
Description: This concentrate was then mixed with a 1 molar sodium bi-carbonate solution and diluted with the stated amount of water.

[3] = 12.98 g/L, 0.11 mol/l, concentrate 0.22 meq/L
[4] = 19.47 g/L, 0.165 mol/l, concentrate 0.33 meq/L
[5] = 25.96 g/L, 0.22 mol/L, concentrate 0.44 meq/L
[6] = 38.94 g/L, 0.33 mol/L, concentrate 0.66 meq/L
[7] = 58.11 g/L, 0.495 mol/L, concentrate 0.99 meq/L

O=C(O)CCC(=O)O [succinic acid]
Time until solution is clear, Average [1, 3]: 210
Time until solution is clear [1, 3]: 200 and 210 and 220
Time until solution is clear, Average [1, 4]: 250
Time until solution is clear [1, 4]: 230 and 250 and 270
Time until solution is clear, Average [1, 5]: 358
Time until solution is clear [1, 5]: 400 and 375 and 300
Time until solution is clear, Average [1, 6]: 460
Time until solution is clear [1, 6]: 510 and 420 and 450
Time until solution is clear, Average [1, 7]: >900
Time until solution is clear [1, 7]: 900 and >1080 and 960
dissolution rate ([1]; in water, in words): very low
pH of finished solution ([2]; 35 mL 1 molar NaHCO3, 951 mL water, 14 mL 0.15 molar succinic acid): 7.08 and 7.09
pH of finished solution ([2]; 35 mL 1 molar NaHCO3, 953 mL water, 12 mL 0.15 molar succinic acid): 7.16 and 7.17
pH of finished solution ([2]; 35 mL 1 molar NaHCO3, 955 mL water, 10 mL 0.15 molar succinic acid): 7.26 and 7.27
pH of finished solution ([2]; 35 mL 1 molar NaHCO3, 957 mL water, 8 mL 0.15 molar succinic acid): 7.42 and 7.39 and 7.41
pH of finished solution ([2]; 40 mL 1 molar NaHCO3, 946 mL water, 14 mL 0.15 molar succinic acid): 7.14 and 7.16 and 7.19
pH of finished solution ([2]; 40 mL 1 molar NaHCO3, 948 mL water, 12 mL 0.15 molar succinic acid): 7.24 and 7.25
pH of finished solution ([2]; 40 mL 1 molar NaHCO3, 950 mL water, 10 mL 0.15 molar succinic acid): 7.34 and 7.35 and 7.32
pH of finished solution ([2]; 40 mL 1 molar NaHCO3, 952 mL water, 8 mL 0.15 molar succinic acid): 7.46 and 7.47 and 7.48
concentration sufficient to adjust a physiological pH ([2]; in terms of the finished ready-to-use solution, relatively high sodium bicarbonate concentration): 1.5 mmol/L
